Laboratory results from ChEMBL document CHEMBL3808374, “Discovery of 3-Substituted 1H-Indole-2-carboxylic Acid Derivatives as a Novel Class of CysLT1 Selective Antagonists” (ACS Med Chem Lett, 2016).
The source made the active and inactive calls. The calls are words filed in the database; no cut-off is given here.

Assays:
[1] = molecular target: T1, Cysteinyl leukotriene receptor 2 (Homo sapiens, UniProt Q9NS75); assay: Antagonist activity against CysLT2 receptor (unknown origin) expressed in HEK293 cells assessed as inhibition of LTD4-induced calcium mobilization pre-incubated for 10 mins before LTD4 addition by Fluo-4 AM dye based fluorimetric assay; assay type: functional, cell-based
T1 sequence (Q9NS75 whole entry): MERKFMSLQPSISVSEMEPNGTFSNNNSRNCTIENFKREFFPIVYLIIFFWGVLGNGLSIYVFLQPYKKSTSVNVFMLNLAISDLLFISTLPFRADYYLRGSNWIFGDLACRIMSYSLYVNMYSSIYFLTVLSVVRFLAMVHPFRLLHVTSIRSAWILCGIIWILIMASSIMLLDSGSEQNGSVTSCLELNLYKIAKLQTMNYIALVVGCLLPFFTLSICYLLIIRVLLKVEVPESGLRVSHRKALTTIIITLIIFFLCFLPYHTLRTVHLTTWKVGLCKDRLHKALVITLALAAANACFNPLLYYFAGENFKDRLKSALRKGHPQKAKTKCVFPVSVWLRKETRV

[2] = molecular target: T2, Cysteinyl leukotriene receptor 1 (Homo sapiens, UniProt Q9Y271); assay: Antagonist activity against CysLT1 receptor (unknown origin) expressed in HEK293 cells assessed as inhibition of LTD4-induced calcium mobilization pre-incubated for 10 mins before LTD4 addition by Fluo-4 AM dye based fluorimetric assay; assay type: functional, cell-based
T2 sequence (Q9Y271 whole entry): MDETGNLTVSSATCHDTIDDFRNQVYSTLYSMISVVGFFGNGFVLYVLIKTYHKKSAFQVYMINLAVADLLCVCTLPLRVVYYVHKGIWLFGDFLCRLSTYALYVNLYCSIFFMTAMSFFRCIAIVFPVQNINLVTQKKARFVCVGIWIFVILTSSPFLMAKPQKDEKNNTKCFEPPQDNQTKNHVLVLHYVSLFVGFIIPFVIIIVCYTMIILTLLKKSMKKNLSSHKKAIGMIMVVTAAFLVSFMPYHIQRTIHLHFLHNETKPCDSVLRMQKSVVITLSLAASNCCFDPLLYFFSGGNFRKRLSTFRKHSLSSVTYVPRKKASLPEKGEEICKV

[3] = molecular target: T3, Cysteinyl leukotriene receptor 1 (Mus musculus) (UniProt Q99JA4); assay: (§1) Antagonist activity at LTD4 receptor in splenocytes isolated from MOG(35 to 55 residues) containing CFA immunized and pertussis toxin-induced C57BL/6 mouse experimental autoimmune encephalomyelitis model assessed as inhibition of LTD4-induced leukocyte chemotaxis at 100 nM after 1.5 hrs by flow cytometric analysis; assay type: cell-based
T3 sequence (whole entry): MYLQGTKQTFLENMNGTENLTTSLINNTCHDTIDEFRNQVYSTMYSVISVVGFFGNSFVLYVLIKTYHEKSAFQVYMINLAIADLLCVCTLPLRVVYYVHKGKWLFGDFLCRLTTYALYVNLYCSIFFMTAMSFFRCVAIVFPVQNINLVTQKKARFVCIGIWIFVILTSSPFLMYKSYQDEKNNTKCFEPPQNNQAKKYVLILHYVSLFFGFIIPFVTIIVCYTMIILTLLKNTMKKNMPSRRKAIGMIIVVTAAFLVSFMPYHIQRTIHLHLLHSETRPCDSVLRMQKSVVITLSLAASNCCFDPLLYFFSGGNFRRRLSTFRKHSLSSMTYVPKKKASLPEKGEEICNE

[4] = molecular target: T3, Cysteinyl leukotriene receptor 1 (Mus musculus); settings: C57BL/6, at 1 µM
[5] = molecular target: T3, Cysteinyl leukotriene receptor 1 (Mus musculus); assay: as §1, with “10” for “100”; assay type: cell-based

O=C(/C=C/c1c(C(=O)O)[nH]c2cc(Cl)cc(Cl)c12)OC1CCCCC1
IC50 [1]: > 100 µM | IC50 [2]: > 100 µM

O=C(/C=C/c1c(C(=O)O)[nH]c2ccccc12)Nc1cccc(/C=C/c2ccc3ccc(Cl)cc3n2)c1
inhibition [3]: > 50% | IC50 [1]: 58 µM | IC50 [2]: 0.009 µM

O=C(/C=C/c1c(C(=O)O)[nH]c2cc(Cl)cc(Cl)c12)OCc1cccc(/C=C/c2ccc3ccc(Cl)cc3n2)c1
IC50 [1]: > 100 µM | IC50 [2]: 0.66 µM | inhibition [4]: 50%

O=C(/C=C/c1c(C(=O)O)[nH]c2c(Cl)cccc12)Nc1cccc(/C=C/c2ccc3ccc(Cl)cc3n2)c1
IC50 [1]: > 100 µM | IC50 [2]: 0.016 µM

N#CCCCCOC(=O)/C=C/c1c(C(=O)O)[nH]c2cc(Cl)cc(Cl)c12
IC50 [1]: > 100 µM | IC50 [2]: > 100 µM

O=C(/C=C/c1c(C(=O)O)[nH]c2cc(Cl)cc(Cl)c12)OCCCc1ccccc1
IC50 [1]: > 100 µM | IC50 [2]: > 100 µM

O=C(/C=C/c1c(C(=O)O)[nH]c2cc(F)cc(F)c12)Nc1cccc(/C=C/c2ccc3ccc(Cl)cc3n2)c1
IC50 [1]: 76 µM | IC50 [2]: 0.038 µM

O=C(O)c1ccc(OCCCc2ccc(OCCCCOc3ccccc3)cc2)c(C(=O)NC2CCCC(C(=O)O)C2)c1 (stereo unspecified)
IC50 [2]: > 2.5 µM

O=C(/C=C/c1c(C(=O)O)[nH]c2ccc(F)cc12)Nc1cccc(/C=C/c2ccc3ccc(Cl)cc3n2)c1
inhibition [3]: > 50% | IC50 [1]: 46 µM | IC50 [2]: 0.0078 µM | inhibition [5]: Active

O=C(O)c1[nH]c2ccccc2c1C(=O)Nc1cccc(/C=C/c2ccc3ccc(Cl)cc3n2)c1
IC50 [1]: 23 µM | IC50 [2]: 0.035 µM

O=C(/C=C/c1c(C(=O)O)[nH]c2cccc(Cl)c12)Nc1cccc(/C=C/c2ccc3ccc(Cl)cc3n2)c1
IC50 [1]: 36 µM | IC50 [2]: 0.067 µM

O=C(/C=C/c1c[nH]c2cc(Cl)cc(Cl)c12)OCc1cccc(/C=C/c2ccc3ccc(Cl)cc3n2)c1
IC50 [1]: > 100 µM | IC50 [2]: 31 µM

O=C(CCc1c(C(=O)O)[nH]c2ccccc12)Nc1cccc(/C=C/c2ccc3ccc(Cl)cc3n2)c1
IC50 [1]: 50 µM | IC50 [2]: 0.058 µM

CC(C)CCCOC(=O)/C=C/c1c(C(=O)O)[nH]c2cc(Cl)cc(Cl)c12
IC50 [1]: > 100 µM | IC50 [2]: > 100 µM

O=C(/C=C/c1c(C(=O)O)[nH]c2ccccc12)OCc1cccc(/C=C/c2ccc3ccc(Cl)cc3n2)c1
IC50 [1]: > 100 µM | IC50 [2]: 0.12 µM

COc1ccc2[nH]c(C(=O)O)c(/C=C/C(=O)Nc3cccc(/C=C/c4ccc5ccc(Cl)cc5n4)c3)c2c1
IC50 [1]: 46 µM | IC50 [2]: 0.025 µM

O=C(/C=C/c1c(C(=O)O)[nH]c2cc(Cl)cc(Cl)c12)OCc1ccccc1
IC50 [1]: > 100 µM | IC50 [2]: > 100 µM

COc1ccc2c(/C=C/C(=O)Nc3cccc(/C=C/c4ccc5ccc(Cl)cc5n4)c3)c(C(=O)O)[nH]c2c1
inhibition [3]: > 50% | IC50 [1]: > 100 µM | IC50 [2]: 0.012 µM

O=C(/C=C/c1c(C(=O)O)[nH]c2cc(Cl)cc(Cl)c12)Oc1ccccc1
IC50 [1]: > 100 µM | IC50 [2]: > 100 µM

O=C(/C=C/c1c(C(=O)O)[nH]c2cc(Cl)cc(Cl)c12)OCCc1ccccc1
IC50 [1]: > 100 µM | IC50 [2]: > 100 µM

O=C(/C=C/c1c(C(=O)O)[nH]c2ccc(Cl)cc12)Nc1cccc(/C=C/c2ccc3ccc(Cl)cc3n2)c1
IC50 [1]: > 100 µM | IC50 [2]: 0.017 µM

O=C(/C=C/c1c(C(=O)O)[nH]c2cc(Cl)cc(Cl)c12)Nc1cccc(/C=C/c2ccc3ccc(Cl)cc3n2)c1
IC50 [1]: > 100 µM | IC50 [2]: 0.29 µM

O=C(/C=C/c1c(C(=O)O)[nH]c2cc(Cl)cc(Cl)c12)OCC1CCCCC1
IC50 [1]: > 100 µM | IC50 [2]: > 100 µM

O=C(/C=C/c1c(C(=O)O)[nH]c2cc(Cl)ccc12)Nc1cccc(/C=C/c2ccc3ccc(Cl)cc3n2)c1
IC50 [1]: 87 µM | IC50 [2]: 0.022 µM

COc1cccc2c(/C=C/C(=O)Nc3cccc(/C=C/c4ccc5ccc(Cl)cc5n4)c3)c(C(=O)O)[nH]c12
inhibition [3]: > 50% | IC50 [1]: 15 µM | IC50 [2]: 0.0059 µM | inhibition [5]: Active

CCCCCOC(=O)/C=C/c1c(C(=O)O)[nH]c2cc(Cl)cc(Cl)c12
IC50 [1]: > 100 µM | IC50 [2]: > 100 µM

CC(C)(O)c1ccccc1CC[C@@H](SCC1(CC(=O)O)CC1)c1cccc(/C=C/c2ccc3ccc(Cl)cc3n2)c1
inhibition [4]: 50%

O=C(/C=C/c1c(C(=O)O)[nH]c2cc(Cl)cc(Cl)c12)OCCCCc1ccccc1
IC50 [1]: > 100 µM | IC50 [2]: > 100 µM
